This data set has as its system CCRIS mutagenicity, Ames/micronucleus/aberration tests. Briefly: CCRIS mutagenicity studies.
[1] abbreviates: Test System: AMES SALMONELLA TYPHIMURIUM, Strain/Indicator: TA98, Metabolic Activation: NONE, Method: STANDARD PLATE.
The mark [2] stands for this setting: Test System: AMES SALMONELLA TYPHIMURIUM, Strain/Indicator: TA98, Metabolic Activation: RAT, LIVER, S-9, AROCLOR 1254, Method: STANDARD PLATE.
The mark [3] stands for this setting: Test System: AMES SALMONELLA TYPHIMURIUM, Strain/Indicator: TA100, Metabolic Activation: NONE, Method: STANDARD PLATE.
Where [4] appears, read: Test System: AMES SALMONELLA TYPHIMURIUM, Strain/Indicator: TA100, Metabolic Activation: RAT, LIVER, S-9, AROCLOR 1254, Method: STANDARD PLATE.
Setting [5] is: Test System: AMES SALMONELLA TYPHIMURIUM, Strain/Indicator: TA1535, Metabolic Activation: NONE, Method: STANDARD PLATE.
Where [6] appears, read: Test System: AMES SALMONELLA TYPHIMURIUM, Strain/Indicator: TA1535, Metabolic Activation: RAT, LIVER, S-9, AROCLOR 1254, Method: STANDARD PLATE.
Setting [7] is: Test System: AMES SALMONELLA TYPHIMURIUM, Strain/Indicator: TA1537, Metabolic Activation: NONE, Method: STANDARD PLATE.
Setting [8] is: Test System: MOUSE LYMPHOMA, Strain/Indicator: L5178Y (TK+/TK-), Metabolic Activation: NONE, Method: SUSPENSION/PLATE.
[9] abbreviates: Test System: AMES SALMONELLA TYPHIMURIUM, Strain/Indicator: TA100, Metabolic Activation: NONE, Method: PREINCUBATION
[10] abbreviates: Test System: AMES SALMONELLA TYPHIMURIUM, Strain/Indicator: TA1535, Metabolic Activation: NONE, Method: PREINCUBATION
The mark [11] stands for this setting: Test System: AMES SALMONELLA TYPHIMURIUM, Strain/Indicator: TA98, Metabolic Activation: NONE, Method: PREINCUBATION

Each structure is given as a SMILES string. Calls of active or inactive are those of the source. The rule behind the calls is not given here.

Regarding `C=C1CC/C=C(/C)CC[C@@H]2[C@@H]1CC2(C)C`, the mutagenic call (Test System: AMES SALMONELLA TYPHIMURIUM, Strain/Indicator: TA98, Metabolic Activation: HAMSTER, LIVER, S-9, AROCLOR 1254, Method: STANDARD PLATE) is “inactive; negative”; the mutagenic call under setting [1] is “inactive; negative”; the mutagenic call under setting [2] was “inactive; negative”; the mutagenic call (Test System: AMES SALMONELLA TYPHIMURIUM, Strain/Indicator: TA100, Metabolic Activation: HAMSTER, LIVER, S-9, AROCLOR 1254, Method: STANDARD PLATE) is “inactive; negative”; the mutagenic call under setting [3] was “inactive; negative”; the mutagenic call under setting [4] was “inactive; negative”. Besides, the mutagenic call reads like this: (Test System: AMES SALMONELLA TYPHIMURIUM, Strain/Indicator: TA102, Metabolic Activation: HAMSTER, LIVER, S-9, AROCLOR 1254, Method: STANDARD PLATE) “inactive; negative”; (Test System: AMES SALMONELLA TYPHIMURIUM, Strain/Indicator: TA102, Metabolic Activation: NONE, Method: STANDARD PLATE) “inactive; negative”; (Test System: AMES SALMONELLA TYPHIMURIUM, Strain/Indicator: TA102, Metabolic Activation: RAT, LIVER, S-9, AROCLOR 1254, Method: STANDARD PLATE) “inactive; negative”; (Test System: AMES SALMONELLA TYPHIMURIUM, Strain/Indicator: TA1535, Metabolic Activation: HAMSTER, LIVER, S-9, AROCLOR 1254, Method: STANDARD PLATE) “inactive; negative”; under setting [5], “inactive; negative”; under setting [6], “inactive; negative”. The mutagenic call (Test System: AMES SALMONELLA TYPHIMURIUM, Strain/Indicator: TA1537, Metabolic Activation: HAMSTER, LIVER, S-9, AROCLOR 1254, Method: STANDARD PLATE) is “inactive; negative”; the mutagenic call under setting [7] is “inactive; negative”; the mutagenic call (Test System: AMES SALMONELLA TYPHIMURIUM, Strain/Indicator: TA1537, Metabolic Activation: RAT LIVER, S-9, AROCLOR 1254, Method: STANDARD PLATE) is “inactive; negative”; the mutagenic call under setting [8] is “inactive; positive; reevaluation of results: negative”; the mutagenic call (Test System: Mouse lymphoma, Strain/Indicator: L5178Y (tk+/tk-), Metabolic Activation: Rat, Liver, S-9, Aroclor 1254, Method: Suspension/plate) is “equivocal”.
On to `O=[N+]([O-])c1ccc2c(c1)NCC2`, for which the mutagenic call under setting [1] was “active; positive”.
On to `CCCCN(N=O)/C(N)=N/[N+](=O)[O-]`, for which the mutagenic call by setting is: under setting [9], “active; positive”; (Test System: AMES SALMONELLA TYPHIMURIUM, Strain/Indicator: TA100, Metabolic Activation: RAT, LIVER, S-9, KC500 OR PHENOBARBITAL, Method: LIQUID SUSPENSION) “active; positive”; under setting [10], “active; positive”; under setting [5], “active; positive”; (Test System: AMES SALMONELLA TYPHIMURIUM, Strain/Indicator: TA1535, Metabolic Activation: RAT, LIVER, S-9, KC500 OR PHENOBARBITAL, Method: LIQUID SUSPENSION) “active; positive”; (Test System: AMES SALMONELLA TYPHIMURIUM, Strain/Indicator: YG7104, Metabolic Activation: NONE, Method: PREINCUBATION) “active; positive”. Moreover, the mutagenic call by setting is: (Test System: AMES SALMONELLA TYPHIMURIUM, Strain/Indicator: YG7108, Metabolic Activation: NONE, Method: PREINCUBATION) “active; positive”; (Test System: AMES SALMONELLA TYPHIMURIUM, Strain/Indicator: YG7112, Metabolic Activation: NONE, Method: PREINCUBATION) “active; positive”; (Test System: AMES SALMONELLA TYPHIMURIUM, Strain/Indicator: YG7113, Metabolic Activation: NONE, Method: PREINCUBATION) “active; positive”.
As for `CNc1ccc2ncccc2c1N`, the mutagenic call reads like this: under setting [11], “inactive; negative”; (Test System: AMES SALMONELLA TYPHIMURIUM, Strain/Indicator: TA98, Metabolic Activation: RAT, LIVER, S-9, AROCLOR 1254, Method: PREINCUBATION) “inactive; negative”; under setting [9], “inactive; negative”; (Test System: AMES SALMONELLA TYPHIMURIUM, Strain/Indicator: TA100, Metabolic Activation: RAT, LIVER, S-9, AROCLOR 1254, Method: PREINCUBATION) “inactive; negative”.
On to `Nc1ccc(N)c2ccccc12`, for which the mutagenic call runs as follows: (Test System: AMES SALMONELLA TYPHIMURIUM, Strain/Indicator: TA98, Metabolic Activation: HAMSTER, LIVER, S-9, AROCLOR 1254 (5%), Method: PREINCUBATION) “inactive; negative”; (Test System: AMES SALMONELLA TYPHIMURIUM, Strain/Indicator: TA98, Metabolic Activation: HAMSTER, LIVER, S-9, AROCLOR 1254 (30%), Method: PREINCUBATION) “active; positive”; under setting [11], “inactive; negative”; (Test System: AMES SALMONELLA TYPHIMURIUM, Strain/Indicator: TA98, Metabolic Activation: RAT, LIVER, S-9, AROCLOR 1254 (5, 10 OR 30%), Method: PREINCUBATION) “inactive; negative”; (Test System: AMES SALMONELLA TYPHIMURIUM, Strain/Indicator: TA98, Metabolic Activation: RAT, LIVER, S-9, AROCLOR 1254 (10%), Method: PREINCUBATION) “inactive; negative”; (Test System: AMES SALMONELLA TYPHIMURIUM, Strain/Indicator: TA100, Metabolic Activation: HAMSTER, LIVER, S-9, AROCLOR 1254 (5%), Method: PREINCUBATION) “inactive; negative”. For the same compound, the mutagenic call runs as follows: (Test System: AMES SALMONELLA TYPHIMURIUM, Strain/Indicator: TA100, Metabolic Activation: HAMSTER, LIVER, S-9, AROCLOR 1254 (30%), Method: PREINCUBATION) “active; positive”; (Test System: AMES SALMONELLA TYPHIMURIUM, Strain/Indicator: TA100, Metabolic Activation: RAT, LIVER, S-9, AROCLOR 1254 (5, 10 OR 30%), Method: PREINCUBATION) “inactive; negative”; (Test System: AMES SALMONELLA TYPHIMURIUM, Strain/Indicator: TA100, Metabolic Activation: RAT, LIVER, S-9, AROCLOR 1254 (10%), Method: PREINCUBATION) “inactive; negative”; (Test System: AMES SALMONELLA TYPHIMURIUM, Strain/Indicator: TA1535, Metabolic Activation: HAMSTER, LIVER, S-9, AROCLOR 1254 (10%), Method: PREINCUBATION) “inactive; negative”; under setting [10], “inactive; negative”; (Test System: AMES SALMONELLA TYPHIMURIUM, Strain/Indicator: TA1535, Metabolic Activation: RAT, LIVER, S-9, AROCLOR 1254 (10%), Method: PREINCUBATION) “inactive; negative”. Moreover, the mutagenic call (Test System: AMES SALMONELLA TYPHIMURIUM, Strain/Indicator: TA1537, Metabolic Activation: HAMSTER, LIVER, S-9, AROCLOR 1254 (10%), Method: PREINCUBATION) is “inactive; negative”; the mutagenic call (Test System: AMES SALMONELLA TYPHIMURIUM, Strain/Indicator: TA1537, Metabolic Activation: NONE, Method: PREINCUBATION) was “inactive; negative”; the mutagenic call (Test System: AMES SALMONELLA TYPHIMURIUM, Strain/Indicator: TA1537, Metabolic Activation: RAT, LIVER, S-9, AROCLOR 1254 (10%), Method: PREINCUBATION) was “inactive; negative”.
For `CCN(CC)c1cc(NC(C)=O)c(N=Nc2ccc([N+](=O)[O-])cc2)cc1OC`, the mutagenic call was “active; positive” under setting [1]; “active; positive” under setting [2]; “inactive; negative” under setting [3]; “active; positive” under setting [4]; “inactive; negative” under setting [5]; “active; positive” under setting [6]. Also, the mutagenic call is “inactive; negative” under setting [7]; “active; positive” (Test System: AMES SALMONELLA TYPHIMURIUM, Strain/Indicator: TA1537, Metabolic Activation: RAT, LIVER, S-9, AROCLOR 1254, Method: STANDARD PLATE); “inactive; negative” under setting [8]; “inactive; negative” (Test System: MOUSE LYMPHOMA, Strain/Indicator: L5178Y (TK+/TK-), Metabolic Activation: RAT, LIVER, S-9, AROCLOR 1254, Method: SUSPENSION/PLATE); “inactive; negative” (Test System: UDS RAT HEPATOCYTES, Strain/Indicator: THY INCORP, Metabolic Activation: NONE, Method: AUTORADIOGRAPHY).

The values are drawn from PubChem BioAssay AID1259407 (Chemical Carcinogenesis Research Information System (CCRIS), 2018).
